According to ChEMBL document CHEMBL5120763 (J Nat Prod, 2022):
Active and inactive are the calls of the source. The rule behind the calls is not given here.

Tests used:
[1] = test system: NCI-H1299; experiment: Induction of apoptosis in human NCI-H1299 cells at 0.25 to 1 uM incubated for 24 hrs by FITC annexin V/PI double-staining based flow cytometry; type: functional, cell-based; conditions: dose 0.25-1 µM, DDE = dose-dependent effect
[2] = test system: PC-9; experiment: Induction of apoptosis in human PC-9 cells at 0.25 to 1 uM incubated for 48 hrs by FITC annexin V/PI double-staining based flow cytometry; type: functional, cell-based; conditions: dose 0.25-1 µM, DDE = dose-dependent effect
[3] = test system: NCI-H1299; experiment: Induction of apoptosis in human NCI-H1299 cells assessed as increase in cleaved PARP1 levels at 0.25 to 1 uM incubated for 24 hrs by Western blot analysis; type: functional, cell-based; conditions: dose 0.25-1 µM
[4] = test system: NCI-H1299; experiment: Induction of apoptosis in human NCI-H1299 cells assessed as reduction in Bcl2 levels at 0.25 to 1 uM incubated for 24 hrs by Western blot analysis; type: functional, cell-based; conditions: dose 0.25-1 µM
[5] = test system: PC-9; experiment: Induction of apoptosis in human PC-9 cells assessed as increase in cleaved PARP1 levels at 0.25 to 1 uM incubated for 48 hrs by Western blot analysis; type: functional, cell-based; conditions: dose 0.25-1 µM
[6] = test system: PC-9; experiment: Induction of apoptosis in human PC-9 cells assessed as reduction in Bcl2 levels at 0.25 to 1 uM incubated for 48 hrs by Western blot analysis; type: functional, cell-based; conditions: dose 0.25-1 µM
[7] = test system: PC-9; experiment: Induction of apoptosis in human PC-9 cells assessed as late apoptosis cells level at 1 uM incubated for 48 hrs by FITC annexin V/PI double-staining based flow cytometry (reference value: 2.07%); type: functional
[8] = test system: PC-9; experiment: Induction of apoptosis in human PC-9 cells assessed as late apoptosis cells level at 0.25 uM incubated for 48 hrs by FITC annexin V/PI double-staining based flow cytometry (reference value: 2.07%); type: functional
[9] = test system: PC-9; experiment: Induction of apoptosis in human PC-9 cells assessed as late apoptosis cells level at 0.5 uM incubated for 48 hrs by FITC annexin V/PI double-staining based flow cytometry (reference value: 2.07%); type: functional
[10] = test system: NCI-H1299; experiment: Induction of apoptosis in human NCI-H1299 cells assessed as late apoptosis cells level at 0.25 uM incubated for 24 hrs by FITC annexin V/PI double-staining based flow cytometry (reference value: 4.27%); type: functional
[11] = test system: NCI-H1299; experiment: Induction of apoptosis in human NCI-H1299 cells assessed as late apoptosis cells level at 0.5 uM incubated for 24 hrs by FITC annexin V/PI double-staining based flow cytometry (reference value: 4.27%); type: functional
[12] = test system: NCI-H1299; experiment: Induction of apoptosis in human NCI-H1299 cells assessed as late apoptosis cells level at 1 uM incubated for 24 hrs by FITC annexin V/PI double-staining based flow cytometry (reference value: 4.27%); type: functional
[13] = test system: A549; experiment: Antitumor activity against human A549 cells xenografted in BALB/c nude mouse assessed as reduction in tumor size at 2 mg/kg, ip dosed every 2 days for total of 18 days; type: functional, organism-based; conditions: time 18.0 day
[14] = Toxicity in BALB/c nude mouse xenografted with human A549 cells assessed as induction of body weight loss at 1 to 2 mg/kg, ip dosed every 2 days for total of 18 days; type: organism-based; conditions: in vivo, 432 h, dose 1-2 mg/kg, time 18 day
[15] = Toxicity in BALB/c nude mouse xenografted with human A549 cells assessed as toxic effect on heart at 1 to 2 mg/kg, ip dosed every 2 days for total of 18 days by H and E staining; type: organism-based; conditions: in vivo, dose 1-2 mg/kg
[16] = Toxicity in BALB/c nude mouse xenografted with human A549 cells assessed as toxic effect on liver at 1 to 2 mg/kg, ip dosed every 2 days for total of 18 days by H and E staining; type: organism-based; conditions: in vivo, 432 h, dose 1-2 mg/kg, time 18 day
[17] = Toxicity in BALB/c nude mouse xenografted with human A549 cells assessed as toxic effect on lung at 1 to 2 mg/kg, ip dosed every 2 days for total of 18 days by H and E staining; type: organism-based; conditions: in vivo, 432 h, dose 1-2 mg/kg, time 18 day
[18] = Toxicity in BALB/c nude mouse xenografted with human A549 cells assessed as toxic effect on kidney at 1 to 2 mg/kg, ip dosed every 2 days for total of 18 days by H and E staining; type: organism-based; conditions: in vivo, 432 h, dose 1-2 mg/kg, time 18 day
[19] = test system: A549; experiment: Increase in cleaved PARP1 protein expression levels in tumor of BALB/c nude mouse xenografted with human A549 cells at 1 to 2 mg/kg, ip dosed every 2 days for total of 18 days by Western blot analysis; type: functional, organism-based; conditions: dose 1-2 mg/kg, time 18.0 day

In the case of `C[C@]12CC[C@H](O)C[C@@]1(O)CC[C@@H]1[C@@H]2CC[C@]2(C)[C@@H](c3ccc(=O)oc3)CC[C@]12O` [TELOCINOBUFAGIN], the Activity [1] is reported as “Dde”, the Activity [2] is reported as “Dde” and the Activity [3] is reported as “Active”. For the same molecule, the Activity [4] was “Active”, the Activity [5] was “Active” and the Activity [6] was “Active”. The Activity [7] was 22.7%, the Activity [8] was 6.66% and the Activity [9] was 11.37%. For the same molecule, the Activity [10] was 16.98%, the Activity [11] was 25.06% and the Activity [12] was 38.41%. The Activity [13] was “Active”, the Activity [14] was “Non-Toxic” and the Activity [15] was “Non-Toxic”. For the same molecule, the Activity [16] was “Non-Toxic”, the Activity [17] was “Non-Toxic” and the Activity [18] was “Non-Toxic”. For the same molecule, the Activity [19] was “Active”.
